We go through ten compounds from US20240342292A1, “Compounds for the Degradation of EGFR Kinase” (BeiGene Switzerland GmbH, priority 2021, published 2024).

One experiment deals with Del19/T790M/C797S EGFR. Nature of the experiment: EGFR degradation HTRF assay in H1975-clone #28 (DTC) cells. The format is cell-based. The following applies: H1975 # 28 DTC (Del19/T790M/C797S), 16h treatment; for DC50: HTRF; for Dmax (%): maximum percentage of degradation. In outline: (§1)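 Each homozygous H1975 clone was dosed for 16 h at 37 °C with an 8-dose, 5-fold series (top 10 uM, 0.2% DMSO). An HTRF antibody pair then measured EGFR in lysates, and a sigmoidal fit of percent inhibition gave DC50.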

A further experiment has as its target T1, L858R/T790M/C797S EGFR (Homo sapiens, UniProt P00533, C797S/L858R/T790M).
T1 construct: expressed in transfected cells; host or cells: H1975 clone #25 (lentiviral over-expression, endogenous EGFR knocked out by sgRNA)
Nature of the experiment: EGFR degradation HTRF assay in H1975-clone #25 (LTC) cells. The format is cell-based. The following applies: 16h treatment; for DC50: H1975 # 25-LTC (L858R/T790M/C797S), HTRF; for Dmax: NCI-H1975, H1975 # 25-LTC (L858R/T790M/C797S), maximum percentage of degradation. Summed up:
as §1

T1 sequence (P00533 25-1210 T790M/C797S/L858R): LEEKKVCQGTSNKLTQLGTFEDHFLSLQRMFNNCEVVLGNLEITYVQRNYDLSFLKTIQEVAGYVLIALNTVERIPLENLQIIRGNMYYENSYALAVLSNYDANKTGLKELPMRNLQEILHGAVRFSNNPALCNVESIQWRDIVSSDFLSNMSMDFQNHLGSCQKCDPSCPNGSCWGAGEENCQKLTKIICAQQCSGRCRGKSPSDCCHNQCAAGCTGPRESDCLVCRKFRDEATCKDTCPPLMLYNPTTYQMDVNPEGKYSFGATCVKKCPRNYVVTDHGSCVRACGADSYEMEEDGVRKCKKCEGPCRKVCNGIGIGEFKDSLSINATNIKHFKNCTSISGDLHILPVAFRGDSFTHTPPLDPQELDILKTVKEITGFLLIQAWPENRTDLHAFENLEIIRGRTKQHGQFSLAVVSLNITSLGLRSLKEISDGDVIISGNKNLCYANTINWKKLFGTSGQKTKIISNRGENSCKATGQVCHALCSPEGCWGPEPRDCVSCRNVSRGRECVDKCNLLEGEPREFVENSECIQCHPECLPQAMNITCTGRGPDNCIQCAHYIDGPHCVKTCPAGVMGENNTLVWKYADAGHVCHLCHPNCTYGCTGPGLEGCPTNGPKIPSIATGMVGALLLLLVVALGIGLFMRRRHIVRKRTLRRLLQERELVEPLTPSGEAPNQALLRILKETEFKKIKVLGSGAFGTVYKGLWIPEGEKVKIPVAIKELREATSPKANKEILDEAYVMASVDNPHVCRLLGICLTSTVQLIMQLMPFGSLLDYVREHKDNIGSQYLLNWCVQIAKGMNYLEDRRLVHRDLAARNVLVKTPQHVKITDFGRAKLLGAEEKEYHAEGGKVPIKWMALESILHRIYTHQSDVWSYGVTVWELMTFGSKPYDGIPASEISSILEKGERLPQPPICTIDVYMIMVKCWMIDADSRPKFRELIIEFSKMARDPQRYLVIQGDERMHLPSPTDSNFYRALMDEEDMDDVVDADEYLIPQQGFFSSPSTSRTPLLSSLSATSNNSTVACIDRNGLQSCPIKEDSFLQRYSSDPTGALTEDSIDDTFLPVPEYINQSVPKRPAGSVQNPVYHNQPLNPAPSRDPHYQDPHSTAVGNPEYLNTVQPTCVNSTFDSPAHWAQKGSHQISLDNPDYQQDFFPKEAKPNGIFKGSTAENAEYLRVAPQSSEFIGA

On to `Cc1cc2cc(n1)-c1cnn(C)c1OCCC[C@@H](C)CN1/C(=N/C2=O)Nc2ccc(C(=O)N(C)[C@H]3CCN(CCc4cc(F)c([C@H]5CCC(=O)NC5=O)c(F)c4)C[C@@H]3F)cc21` [Example 247, (R,E)-N-((3S,4S)-1-(4-((R)-2,6-dioxopiperidin-3-yl)-3,5-difluorophenethyl)-3-fluoropiperidin-4-yl)-N,1^1,2^6,7-tetramethyl-3-oxo-5^2,5^3-dihydro-1^1H,5^1H-11-oxa-4-aza-5(2,1)-benzo[d]imidazola-2(2,4)-pyridina-1(4,5)-pyrazolacycloundecaphane-5^6-carboxamide], for which, in the experiment on Del19/T790M/C797S EGFR, it took 0.611 nM to reach half-maximal degradation (DC50) and the “Dmax (%)” value is listed as 87.12%. At L858R/T790M/C797S EGFR, this compound returned a DC50 of 0.6 nM and a Dmax of 92.5%.

For the compound `Cc1cc2cc(n1)-c1cnn(C)c1OCCC[C@@H](C)CN1/C(=N/C2=O)Nc2ccc(CN3CCN(C(=O)C4CN(c5cc(F)c([C@H]6CCC(=O)NC6=O)c(F)c5)C4)CC3)cc21` [Example 76, (R)-3-(2,6-difluoro-4-(3-(4-(((R,E)-1^1,2^6,7-trimethyl-3-oxo-5^2,5-dihydro-1^1H,5^1H-11-oxa-4-aza-5(2,1)-benzo[d]imidazola-2(2,4)-pyridina-1(4,5)-pyrazolacycloundecaphane-5^6-yl)methyl)piperazine-1-carbonyl)azetidin-1-yl)phenyl)piperidine-2,6-dione], in the experiment with Del19/T790M/C797S EGFR, the half-maximal degradation concentration (DC50) was determined as 0.7 nM and the “Dmax (%)” value is on record as 75.8%. At L858R/T790M/C797S EGFR, this compound displayed a DC50 of 0.9 nM and a maximal degradation (Dmax) of 84.4%.

As for `Cc1cc2cc(n1)-c1cnn(C)c1OCCC[C@@H](C)CN1/C(=N/C2=O)Nc2ccc(N3CCN(CCc4ccc(C5CCC(=O)NC5=O)nc4C)CC3)cc21` (stereo partly drawn) [Example 393, 3-(6-methyl-5-(2-(4-((R,E)-1^1,2^6,7-trimethyl-3-oxo-5^2,5^3-dihydro-1^1H,5^1H-11-oxa-4-aza-5(2,1)-benzo[d]imidazola-2(2,4)-pyridina-1(4,5)-pyrazolacycloundecaphane-5^6-yl)piperazin-1-yl)ethyl)pyridin-2-yl)piperidine-2,6-dione], in the experiment with Del19/T790M/C797S EGFR, the DC50 came out at 0.54 nM and the “Dmax (%)” value stood at 77.73%. At L858R/T790M/C797S EGFR, this compound returned a half-maximal degradation concentration (DC50) of 0.34 nM and a Dmax of 89.8%.

With `Cc1cc2cc(n1)-c1cnn(C)c1OCC[C@@H]1C[C@H]1CN1/C(=N/C2=O)Nc2ccc(N3CCC(C(=O)N4CCN(c5cc(F)c([C@H]6CCC(=O)NC6=O)c(F)c5)CC4)CC3)cc21` [Example 367, (R)-3-(4-(4-(1-((71R,72S,E)-1^1,2^6-dimethyl-3-oxo-5^2,5^3-dihydro-1^1H,5^1H-10-oxa-4-aza-5(2,1)-benzo[d]imidazola-2(2,4)-pyridina-1(4,5)-pyrazola-7(1,2)-cyclopropanacyclodecaphane-5^6-yl)piperidine-4-carbonyl)piperazin-1-yl)-2,6-difluorophenyl)piperidine-2,6-dione], in the experiment on Del19/T790M/C797S EGFR, the half-maximal degradation concentration (DC50) turned out to be 0.623 nM and the “Dmax (%)” value was found to be 80.77%. Further, on L858R/T790M/C797S EGFR, it took 1.31 nM to reach half-maximal degradation (DC50) and the Dmax stood at 87.8%.

For `Cc1cc2cc(n1)-c1cnn(C)c1OCCC[C@@H](C)CN1/C(=N/C2=O)Nc2ccc(N3CCN(C4CCN(c5ccc(C6CCC(=O)NC6=O)nc5)CC4)CC3)cc21` (stereo partly drawn) [Example 373, 3-(5-(4-(4-((R,E)-1^1,2^6,7-trimethyl-3-oxo-5^2,5^1-dihydro-1^1H,5^1H-11-oxa-4-aza-5(2,1)-benzo[d]imidazola-2(2,4)-pyridina-1(4,5)-pyrazolacycloundecaphane-5^6-yl)piperazin-1-yl)piperidin-1-yl)pyridin-2-yl)piperidine-2,6-dione], in the experiment on Del19/T790M/C797S EGFR, half-maximal degradation (DC50) was put at 0.656 nM and the “Dmax (%)” value is given as 69.22%. In addition, on L858R/T790M/C797S EGFR, it took 0.47 nM to reach half-maximal degradation (DC50) and the Dmax turned out to be 84.9%.

Consider `Cc1cc2cc(n1)-c1cnn(C)c1OCCC[C@@H](C)CN1/C(=N/C2=O)Nc2ccc(N3CC[C@H](C(=O)N4CCN(c5cc(F)c([C@H]6CCC(=O)NC6=O)c(F)c5)CC4)C3)cc21` [Example 358, (R)-3-(2,6-difluoro-4-(4-((S)-1-((R,E)-1^1,2^4,7-trimethyl-3-oxo-5^2,5^3-dihydro-1^1H,5^1H-11-oxa-4-aza-5(2,1)-benzo[d]imidazola-2(2,4)-pyridina-1(4,5)-pyrazolacycloundecaphane-5^6-yl)pyrrolidine-3-carbonyl)piperazin-1-yl)phenyl)piperidine-2,6-dione], for which, in the experiment on Del19/T790M/C797S EGFR, the DC50 was 1.3 nM and the “Dmax (%)” value was 75.67%. Moreover, on L858R/T790M/C797S EGFR, the 50% degradation concentration (DC50) was 0.622 nM and the Dmax was found to be 89.6%.

For the compound `Cc1cc2cc(n1)-c1cnn(C)c1OCC[C@H]1C[C@@H]1CN1/C(=N/C2=O)Nc2ccc(N3CCC(N4CCN(c5cc(F)c([C@H]6CCC(=O)NC6=O)c(F)c5)CC4=O)CC3)cc21` [Example 458, (R)-3-(4-(4-(1-((7'S,7^2R,E)-1^1,2^6-dimethyl-3-oxo-5^2,5^3-dihydro-1^1H,5^1H-10-oxa-4-aza-5(2,1)-benzo[d]imidazola-2(2,4)-pyridina-1(4,5)-pyrazola-7(1,2)-cyclopropanacyclodecaphane-5^6-yl)piperidin-4-yl)-3-oxopiperazin-1-yl)-2,6-difluorophenyl)piperidine-2,6-dione], in the experiment on Del19/T790M/C797S EGFR, the DC50 turned out to be 0.985 nM and the “Dmax (%)” value was determined as 92.47%. At L858R/T790M/C797S EGFR, this compound registered a 50% degradation concentration (DC50) of 0.809 nM and a maximal degradation (Dmax) of 92.7%.

Take `Cc1cc2cc(n1)-c1cnn(C)c1OCCC[C@@H](C)CN1/C(=N/C2=O)Nc2ccc(C(=O)N(C)C3CCN(CCc4cccc5c4C(C)(C)C(=O)N5[C@H]4CCC(=O)NC4=O)CC3)cc21` [Example 379, (R,E)-N-(1-(2-(1-((S)-2,6-dioxopiperidin-3-yl)-3,3-dimethyl-2-oxoindolin-4-yl)ethyl)piperidin-4-yl)-N,1^1,2^6,7-tetramethyl-3-oxo-5^2,5^3-dihydro-1^1H,5^1H-11-oxa-4-aza-5(2,1)-benzo[d]imidazola-2(2,4)-pyridina-1(4,5)-pyrazolacycloundecaphane-5^6-carboxamide]: in the experiment with Del19/T790M/C797S EGFR, the half-maximal degradation concentration (DC50) was found to be 0.682 nM and the “Dmax (%)” value was 67.89%. At L858R/T790M/C797S EGFR, the half-maximal degradation concentration (DC50) worked out at 0.503 nM and the Dmax was 80.9%.

`Cc1cc2cc(n1)-c1cnn(C)c1OCCC[C@@H](C)CN1/C(=N/C2=O)Nc2ccc(N3CCN(C4CCN(c5ccc6c(c5)CN([C@H]5CCC(=O)NC5=O)C6=O)CC4)CC3)cc21` [Example 396, (S)-3-(1-oxo-5-(4-(4-((R,E)-1^1,2^6,7-trimethyl-3-oxo-5^2,53-dihydro-1^1H,5^1H-11-oxa-4-aza-5(2,1)-benzo[d]imidazola-2(2,4)-pyridina-1(4,5)-pyrazolacycloundecaphane-5^6-yl)piperazin-1-yl)piperidin-1-yl)isoindolin-2-yl)piperidine-2,6-dione]: in the experiment on Del19/T790M/C797S EGFR, it took 0.681 nM to reach half-maximal degradation (DC50) and the “Dmax (%)” value was determined as 63.49%. At L858R/T790M/C797S EGFR, this compound registered a DC50 of 0.622 nM and a Dmax of 83.6%.

Consider `Cc1cc2cc(n1)-c1cnn(C)c1OCCC[C@@H](C)CN1/C(=N/C2=O)Nc2ccc(CN3CCN(C(=O)[C@@H]4CCN(c5cc(F)c([C@H]6CCC(=O)NC6=O)c(F)c5)C4)C[C@H]3CO)cc21` [Example 196, (R)-3-(2,6-difluoro-4-((R)-3-((S)-3-(hydroxymethyl)-4-(((R,E)-1^1,2^6,7-trimethyl-3-oxo-5^2,5^3-dihydro-1^1H,5^1H-11-oxa-4-aza-5(2,1)-benzo[d]imidazola-2(2,4)-pyridina-1(4,5)-pyrazolacycloundecaphane-56-yl)methyl)piperazine-1-carbonyl)pyrrolidin-1-yl)phenyl)piperidine-2,6-dione], for which, in the experiment with Del19/T790M/C797S EGFR, the half-maximal degradation concentration (DC50) was determined as 0.598 nM and the “Dmax (%)” value came to 78.44%. On L858R/T790M/C797S EGFR, this compound returned a DC50 of 0.716 nM and a Dmax of 87.1%.
